The values below come from PubChem BioAssay (NCI).

Molecules are shown by their SMILES.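 All cell lines were grown in 96-well plates and treated with compound for 48 hours. TGI is the concentration that stops growth completely.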

Holding throughout (assay): NCI-60 cell line screen, 48 h
For assay [1], the system named is OVCAR-4 ovarian.
The test system of assay [2] is SNB-19 CNS.
Assay [3] relates to SF-268 CNS.
In assay [4] the test system is SK-MEL-2 melanoma.
Assay [5] relates to A498 renal.
The subject of assay [6] is SNB-75 CNS.
Assay [7] relates to DU-145 prostate.
The subject of assay [8] is MDA-MB-231 breast.
In assay [9] the test system is LOX IMVI melanoma.
For assay [10], the system named is KM12 colon.

On to `CC1(C)OCC(/C=C\C(O)CC2(C)OCCO2)CO1` (stereo not given), for which the TGI in assay [1], in [2], in assay [3], in assay [4], in [5] and in assay [6] was more than 100 µM throughout. Moreover, the TGI in assay [7], in [8], in assay [9] and in assay [10] was more than 100 µM in each case.
On to `COC(=O)c1sc2c(c1C(=O)OC)C(=Nc1ccc(OC)cc1)SC2=Nc1ccc(OC)cc1`, for which the TGI in [1] turned out to be 2.83 µM; in assay [2], 2.88 µM; in assay [3], 3.61 µM; in assay [4] it was 1.48 µM; in [5] it was 3.01 µM; in assay [6], 1.24 µM. For the same molecule, the TGI in [7] came out at 1.69 µM; in assay [8], 2.35 µM; in assay [9], 0.449 µM; in assay [10] it was 3.03 µM.
For `O=C1c2cccc3cc([N+](=O)[O-])cc(c23)C(=O)N1c1ccc(OCCN2CCCC2)cc1`, the TGI in [1] was 67.2 µM; in assay [2], 80.2 µM; in [3] it was more than 100 µM; in assay [4], 54.3 µM; in [5], 32.2 µM; in assay [6], 67.1 µM. For the same molecule, the TGI was more than 100 µM in assay [7], more than 100 µM in assay [8], 34.6 µM in [9] and more than 100 µM in [10].
On to `Cc1nc2nnc(CCCCCCCCc3nnc4nc(C)[nH]n34)n2[nH]1`, for which the TGI in [1], in assay [2], in [3], in [4], in [5] and in assay [6] was more than 100 µM each time. In addition, the TGI in assay [7], in assay [8], in [9] and in [10] was more than 100 µM each time.
`O=C(O)COc1c(Cl)cc(Cl)c(C(c2c(Cl)cc(Cl)c(OCC(=O)O)c2Cl)C(Cl)(Cl)Cl)c1Cl`: the TGI in assay [1] is more than 100 µM; in assay [2], more than 100 µM; in assay [3], more than 100 µM; in assay [4], 42.2 µM; in [5], more than 100 µM; in [6], 93.5 µM. In addition, the TGI in assay [7] is more than 100 µM; in assay [8], 61.3 µM; in assay [9], more than 100 µM; in assay [10], more than 100 µM.
As for `CCOc1c2c(cc3c1C(=O)c1c(OC)cccc1C3=O)C=C(OC)CC2`, the TGI in assay [1], in [2], in [3], in [4], in [5] and in assay [6] was more than 25 µM each time. Further, the TGI in assay [7], in assay [8], in assay [9] and in assay [10] was more than 25 µM in each case.
On to `COc1ccc(Cl)cc1NC(=O)O/N=C(\Cl)C(C)C`, for which the TGI was 34.1 µM in assay [1]; more than 61.7 µM in [2]; 47.4 µM in assay [3]; 33.9 µM in [4]; 46.8 µM in assay [5]; 38.7 µM in [6]. The TGI in assay [7] came out at 37.4 µM; in assay [8], 15.1 µM; in [9], 5.06 µM; in assay [10] it was 35.5 µM.
In the case of `CN1N=C(c2ccncc2)OC1c1ccc(C(F)(F)F)cc1` (stereo not given), the TGI was more than 100 µM in assay [1]; more than 100 µM in [2]; more than 100 µM in assay [3]; more than 100 µM in [4]; more than 100 µM in assay [5]; 87.8 µM in assay [6]. Further, the TGI in assay [7], in assay [8], in assay [9] and in assay [10] was more than 100 µM in each case.
On to `Cc1n[nH]c(=O)c2c3c([nH]c12)-c1ccccc1C3`, for which the TGI in [1] is more than 100 µM; in [2], more than 100 µM; in assay [3], more than 100 µM; in assay [4], more than 100 µM; in assay [5], more than 100 µM; in assay [6], 66.6 µM. The TGI in assay [7], in assay [8], in [9] and in [10] was more than 100 µM each time.
Consider `CCN(CC)C(=O)N[C@@H](CC(C)C)C(=O)NC`, for which the TGI in assay [1], in [2], in assay [3], in [4], in assay [5] and in [6] was more than 100 µM in each case. Moreover, the TGI in assay [7], in assay [8], in [9] and in assay [10] was more than 100 µM in each case.
`Cc1[nH]c2c(C)c3c([nH]c4ccc(Cl)cc43)c(C)c2c(=O)c1C`: the TGI was more than 64.1 µM in [1]; more than 100 µM in [2]; more than 100 µM in assay [3]; more than 100 µM in [4]; 51.9 µM in assay [5]; more than 92.5 µM in assay [6]. Moreover, the TGI in [7] is more than 100 µM; in [8], 7.54 µM; in assay [9], 15.7 µM; in [10], 77.2 µM.
In the case of `Clc1ccc(Cc2nc3cc4ccccc4cc3[nH]2)cc1Cl`, the TGI in assay [1] was found to be 36.8 µM; in assay [2], 46 µM; in assay [3], 62.7 µM; in [4] it was 34.4 µM; in assay [5], 27.7 µM; in [6], 44.5 µM. Moreover, the TGI in assay [7] came out at 45.7 µM; in assay [8], 38 µM; in [9], 60.8 µM; in [10], 45.9 µM.
Regarding `COc1ccc(/C=N/n2c(-c3ccccc3)n[nH]c2=O)c(OC)c1`, the TGI in assay [1] is more than 86.6 µM; in [2] it was 50.1 µM; in assay [3], 71.9 µM; in assay [4], more than 100 µM; in assay [5], more than 73.4 µM; in assay [6] it was more than 73.2 µM. The TGI in [7], in [8], in assay [9] and in [10] was more than 100 µM each time.
